pEC50: −log10 of the molar value. Counter-ions that a name gives are not always drawn.
Experiments:
[1] = biological target: T1, 6×His-RORalphaLBD protein (Homo sapiens, UniProt P35398); experiment: TR-FRET assay measuring RORalphaLBD interaction with the LXXLL peptide SRC1−NR1+2, Example 2; type: biochemical; conditions: for binding of co-activator peptide SRC1−NR1+2 to RORα (increase in fluorescence intensity ratio): FIG. 2, increasing concentrations versus solvent only
T1 construct: made in house; host or cells: Sf9 insect cells (baculovirus, pVL1393)
T1 sequence (P35398 with tags, fused parts or gaps): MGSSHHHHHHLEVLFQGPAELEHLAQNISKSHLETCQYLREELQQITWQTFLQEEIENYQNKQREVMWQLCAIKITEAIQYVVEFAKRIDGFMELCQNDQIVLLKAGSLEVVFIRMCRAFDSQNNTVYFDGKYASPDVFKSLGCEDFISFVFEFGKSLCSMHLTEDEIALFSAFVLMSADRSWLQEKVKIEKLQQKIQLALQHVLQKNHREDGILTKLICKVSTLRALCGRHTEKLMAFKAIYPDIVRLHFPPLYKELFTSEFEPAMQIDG
Description: In this assay, RORα is detected by a specific antibody bound to FRET donor Europium (Eu). The co-activator (CA) is biotin labeled. The biotin label is detecting by streptavidin, which encompasses the FRET acceptor allophycocyanin (APC) marker. If an agonist is bound to RORα, the NR is activated a CA binds to the NR. Accordingly, APC is brought into proximity of Eu, leading to a detecting FRET signal (left panel).
TR-FRET Assay Measuring RORalphaLBD Interaction with the LXXLL Peptide, SRC1−NR1+2
• 6×His-RORalpha: • source: Protein Production (Lab. Thomas Langer) treated with 3 mM LDS, stock solution at 1.5 mg/ml, storage at −20° C., pipetting at room temperature, corresponding to 47.5 μM (with MW 31.6 kD), Concentration in the assay=20 nM • SRC1−NR1+2: • source: JPT Peptide Technologies, stock solution at 250 μM, storage at −20° C., concentration in the assay=400 nM
• anti-6×His antibody: • source: Perkin Elmer #AD0110, stock solutions are at varying concentration with each batch, storage at −20° C., concentration in the assay=20 nM • strep-APC: • source: Perkin Elmer #AD0201, stock solutions are at varying concentration with each batch, storage at +4° C. after reconstitution, concentration in the assay=200 nM (based on streptavidin)
• Cholesterol sulfate: • source: SIGMA #C9523, stock solution in DMSO (30 mM), storage at −20° C.
• 50 mM Tris, 100 mM NaCl, 1 mM DTT, 0.1% Bovine Serum Albumin (add BSA fresh each day), adjust pH to 7.4
• Test plates: CORNING Costar #3639 (96 well half area)
All proteins, labels and compounds were diluted in the assay buffer just prior to assay setup. This assay was realised in 96 well half area plates. The final test volume was 20 μl. It is divided in 2 pipetting steps:
First, a mix containing 6×His-RORalphaLBD protein, BiotinSRC1−NR1+2 peptide, anti-6×His antibody and strep-APC was prepared on ice in the following concentrations: […]
The plates were incubated for 2 h in subdued light at room temperature and read on a Tecan ULTRA at room temperature with 340 nm excitation and 612 nm as Europium reference and 665 nm as APC FRET signal.

RORαLBD protein = biological target: T2, RORαLBD protein (Homo sapiens, UniProt P35398); experiment: co-factor recruitment fluorescence resonance energy transfer assay (FRET), Example 1; type: biochemical; conditions: for co-factor recruitment (fluorescence ratios at 665 nm and 612 nm): time resolved measurement, 20 nM RORαLBD, 400 nM biotin-labeled peptide, 2 hrs
T2 construct: made in house; host or cells: Sf9 insect cells (baculovirus, pVL1393)
T2 sequence (P35398 with tags, fused parts or gaps): T1 sequence (P35398 with tags, fused parts or gaps)
Protocol: 20 nM RORαLBD protein labeled with equimolar amounts of fluorescent anti-6×His antibody were incubated with 400 nM of the respective biotin-labeled peptide and equimolar amounts of a streptavidin-tagged fluorophore in a buffer containing 50 mM Tris, 100 mM NaCl, 1 mM DTT and 0.1% BSA for 2 hrs.

Question: How did the pEC50 [1] turn out when CC(C)CCC[C@@H](C)[C@H]1CC[C@H]2[C@@H]3CC=C4C[C@@H](OS(=O)(=O)O)CC[C@]4(C)[C@H]3CC[C@]12C [Cholesterol sulfate] was run?
Answer: The pEC50 was ~5.00.

Question: And the “binding of co-activator peptide SRC1−NR1+2 to RORα (increase in fluorescence intensity ratio)” value [1]?
Answer: The value was “dose-dependently induce binding”.

Question: What about the pEC50 (RORαLBD protein) of the same molecule?
Answer: Its pEC50 is 4.66.

Question: And the “co-factor recruitment (fluorescence ratios at 665 nm and 612 nm)” value (RORαLBD protein)?
Answer: The value was “dose-dependent co-factor recruitment”.

Question: CC(C)CCC[C@@H](C)[C@H]1CC[C@H]2[C@@H]3CC=C4C[C@@H](O)CC[C@]4(C)[C@H]3CC[C@]12C [Cholesterol] was tested. Which “binding of co-activator peptide SRC1−NR1+2 to RORα (increase in fluorescence intensity ratio)” value [1] did it give?
Answer: The value was “dose-dependently induce binding”.

Question: And the “co-factor recruitment (fluorescence ratios at 665 nm and 612 nm)” value (RORαLBD protein)?
Answer: Its value is “dose-dependent co-factor recruitment”.

From patent US20120282710A1, “LIGAND BINDING DOMAINS OF NUCLEAR RECEPTORS IN CONTROLLABLE FORM AND METHODS INVOLVING THE SAME” (SANOFI, priority 2007, published 2012)
